{
  "source": "paper PMC10759609",
  "about": "“A novel PDPN antagonist peptide CY12-RP2 inhibits melanoma growth via Wnt/β-catenin and modulates the immune cells” (Journal of Experimental & Clinical Cancer Research : CR, 2024)",
  "key": {"[1]": {"tested_on": "B16F10-Luc melanoma allograft", "assay_type": "in vivo, BALB/c mice; murine melanoma cell line", "details": "100 mg/kg, tail vein, every other day for 15 days", "procedure": "Tumorigenesis assays were conducted in vivo using BALB/c nude mice and BALB/c mice from Guangdong Medical Laboratory Animal Center. The animal study was reviewed and approved by the Administrative Committee on Animal Research of Shenzhen International Graduate School, Tsinghua University (Ethical Development No. 16, 10 November 2021). Samples with 5 × 10^5 A375 or B16F10-Luc melanoma cells were diluted in 100 μL PBS and injected subcutaneously into 6- to 8-week-old female BALB/c nude mice or BALB/c mice. 5 days later, the mice were treated with CY12-RP2 by tail vein administration at various doses (25 mg/kg and 100 mg/kg) every two days. The tumor volume and body weight were measured every 2 days, with the calculation of the tumor volume under the assumption of an ellipsoidal tumor as: tumor volume = length × width^2/2. Tumors from BALB/c nude mice were collected and photographed on day 21, while tumors from the allograft mouse model were measured using bioluminescence imaging. The blood collected from the eyes of BALB/c nude mice were stored at 4 °C for 24 h and then centrifuged for 15 min under the indicated conditions (4 °C, 3000 rpm). The supernatant was collected and assayed for drug toxicity using kits, including AST, ALT, TG, and γ-GT. […]"}, "[2]": {"biological_target": "T1, PDPN recombinant proteins (Homo sapiens, UniProt Q86YL7)", "T1 construct": "PDPN recombinant proteins were coated on the CM7 sensor chip", "T1 sequence (Q86YL7 23-162)": "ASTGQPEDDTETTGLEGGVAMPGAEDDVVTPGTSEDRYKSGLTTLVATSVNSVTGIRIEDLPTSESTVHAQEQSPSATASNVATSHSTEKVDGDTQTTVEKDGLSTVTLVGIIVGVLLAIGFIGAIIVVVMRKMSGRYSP", "assay": "SPR assay, binding to immobilized PDPN", "details": "CM7 chip, 100 μM to 0.00128 μM", "procedure": "SPR assay was conducted on a GE Biacore 3000 (Cytiva, USA) using a CM7 sensorchip for protein immobilization. All experimental steps were performed at a temperature of 24 °C and samples were kept at 4 °C. CY12-RP1 and CY12-RP2 peptides were diluted in the running buffer ([…] saline buffer, HBS-EP) at the final concentrations ranging from 100 μM to 0.00128 μM. The peptides were injected at a rate of 30 μL/min through immobilized PDPN for 240 s for association. All regenerations were introduced at a flow rate of 30 µL/min. SPR assay was performed in triplicate and the results were analyzed using Biacore 3000 software.\nTo further investigate the potential anti-tumor effect of PDPN antagonist on melanoma, we used a Ph.D.TM-12 Phage Display Peptide Library to screen for a PDPN antagonist peptide. After four rounds of biopanning under progressively stringent selection conditions in vitro, seven clones with individual amino acid sequences were obtained (Fig. 3A). To assess the anti-tumor effects of these seven peptides on melanoma cells, the proliferation of A375 and A875 cell lines after treating with various concentration peptides were examined by CCK8 assay. […] We then performed immunofluorescence, SPR assay, and flow cytometry to identify the binding specificity of CY12-RP1 and CY12-RP2 with PDPN in melanoma cells. […]"}, "A875 cells": {"tested_on": "A875 cells", "assay": "Transwell matrigel invasion, A875", "assay_type": "cell-based", "details": "transwell matrigel, 0, 5, 25 μM, 48 h", "procedure": "For invasion assay, matrigel (Corning, New York, USA) was coated on the upper surface of the upper chamber. The upper chamber was filled with DMEM medium containing 2% FBS, while the lower chamber contained a medium supplemented with 20% FBS. In brief, melanoma cells (A375 GFP, A875 GFP, A375 PDPN^−/−, and A875 PDPN^+/+ cells) were seeded in the upper chamber of the transwell plate (Corning, New York, USA) at about 5 × 10^4 cells/well with the medium as described above. For peptide functionality experiments, A375 and A875 cells were seeded in the upper chamber of the transwell plate at a density of 5 × 10^4 cells/well with various peptide concentrations (0 μM, 5 μM, 25 μM). Transwell inserts were fixed using 4% paraformaldehyde after 48 h cell invasion, and crystalline violet was used for staining. The quantities of invading cells were quantified using ImageJ software (NIH)."}, "[3]": {"tested_on": "3D melanoma spheroid (A375)", "assay": "3D melanoma spheroid / PBMC co-culture", "assay_type": "cell-based", "details": "0, 2, 10, 50 μM, with increasing concentrations", "procedure": "Prepared melanoma cells spheroids were plated in 48-well plates. Following incubation for 3 days, the spheroids were exposed to different concentrations (0, 50, 100 and 200 μM) of CY12-RP2, and changes in spheroid diameter were detected after 5 days of treatment. Additionally, melanoma cell spheroids were treated with various concentrations of CY12-RP2 as described previously, and after 72 h, the spheroids were stained for immunofluorescence with caspase 3 primary antibody. The specific experimental procedures refer to the following immunofluorescence analysis. Additionally, we co-cultured peptide-stimulated PBMC with spheroids to determine the tumor-killing ability of activated PBMC.\nFig. 6 Influence of CY12-RP2 on the immune-mediated anti-tumor capacity of PBMC in vitro and in vivo. A The procedure of PBMC isolation from donor peripheral blood, and the ratio of different immune cells in PBMC was assayed by flow cytometry. B PBMCs were stimulated with CY12-RP2 for 48 h, and the cytokine levels in the supernatant were assayed by ELISA. […] E Brightfield and fluorescent microscopy images of A375 cells (red) co-culture with PBMC (GFP) were stimulated with various concentrations (0, 2, 10, 50 μM) of CY12-RP2. Data are presented as mean ± SD. *p < 0.05, **p < 0.01, ***p < 0.001 versus control"}},
  "note": "Peptide text beside a SMILES is read from it.",
  "data": [
    {"smiles": "CC(C)C[C@H](NC(=O)[C@H](Cc1ccc(O)cc1)NC(=O)[C@@H](N)[C@@H](C)O)C(=O)N[C@@H](CS)C(=O)N[C@H](C(=O)N[C@@H](C)C(=O)N[C@@H](CS)C(=O)N[C@@H](CC(=O)O)C(=O)N[C@@H](Cc1ccc(O)cc1)C(=O)N[C@H](C(=O)N[C@@H](Cc1c[nH]cn1)C(=O)N[C@@H](Cc1c[nH]cn1)C(=O)O)[C@@H](C)O)[C@@H](C)O", "note": "[CY12-RP2] (H-TYLCTACDYTHH-OH; N-terminus and C-terminus assumed)", "values": [
      {"measurement": "tumor volume", "setting": "[1]", "result": "noticeably decreased"},
      {"measurement": "tumor growth (bioluminescence imaging)", "setting": "[1]; vs control", "result": "significantly decreased tumor growth"},
      {"measurement": "binding to PDPN (in words)", "setting": "[2]", "result": "bound to PDPN in a dose-dependent manner"},
      {"measurement": "invasion", "setting": "A875 cells", "result": "could only be inhibited at high concentrations"},
      {"measurement": "tumor-killing capacity of PBMC", "setting": "[3]", "result": "increased"}
    ]}
  ]
}
